“Also recorded” adds a separate entry of the source. Read-outs that look alike come from different tables or passages of the source.
Tests used:
GABAA receptors = settings: modulation of GABAA receptors; cited from earlier work
[1] = read-out: Anesthetic EC50; anesthetizing concentration in animals; cited from earlier work
GLIC = target: T1, GLIC (Gloeobacter violaceus, UniProt Q7NDN8); settings: for Hill Coefficient: Hill (one-site) fit of inhibition of GLIC currents, mean ± se; for modulation of GLIC: at anesthetizing concentrations
T1 sequence (Q7NDN8 44-359): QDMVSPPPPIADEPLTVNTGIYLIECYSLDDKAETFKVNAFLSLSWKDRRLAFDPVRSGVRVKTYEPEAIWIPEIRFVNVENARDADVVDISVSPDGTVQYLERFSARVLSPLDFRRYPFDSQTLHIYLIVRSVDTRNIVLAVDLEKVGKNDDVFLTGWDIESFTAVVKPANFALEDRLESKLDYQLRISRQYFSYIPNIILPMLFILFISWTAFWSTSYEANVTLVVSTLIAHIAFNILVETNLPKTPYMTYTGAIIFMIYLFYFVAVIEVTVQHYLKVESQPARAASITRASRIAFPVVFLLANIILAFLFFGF

[2] = tested on: α3 β4 neuronal nicotinic acetylcholine receptors; settings: cited from earlier work
[3] = tested on: α2β2 neuronal nicotinic acetylcholine receptors; settings: 75mM ethanol; cited from earlier work
[4] = tested on: α3β2 neuronal nicotinic acetylcholine receptors; settings: cited from earlier work
homomeric α7 receptors = settings: 25–50 mM ethanol, response is variable; cited from earlier work
[5] = tested on: GABAA receptors containing a δ subunit; settings: cited from earlier work
5HT3 receptors = settings: cited from earlier work
[6] = tested on: α2 β4 neuronal nicotinic acetylcholine receptors; settings: cited from earlier work
[7] = tested on: α4β4 neuronal nicotinic acetylcholine receptors; settings: 75mM ethanol; cited from earlier work
[8] = tested on: α4β2 neuronal nicotinic acetylcholine receptors; settings: cited from earlier work
glycine receptors = settings: cited from earlier work
5HT3A receptors = settings: 1 MAC of halothane; cited from earlier work
α4 β2 nACh receptors = settings: inhibition; cited from earlier work
[9] = cited from earlier work
GABA receptors = settings: nitrous oxide at 0.6 atm; cited from earlier work
α4β2 nACh receptors = settings: nitrous oxide at 0.6 atm; cited from earlier work
α4β4 nACh receptors = settings: nitrous oxide at 0.6 atm; cited from earlier work
glycine α1 receptors = settings: enhancement of glycine currents; cited from earlier work
glycine α1 β receptors = settings: enhancement of glycine currents; cited from earlier work
[10] = IC50_1, two-site model, apparent affinity for site 1
[11] = IC50_2, two-site model, apparent affinity for site 2

## CCOC(=O)c1cncn1[C@H](C)c1ccccc1 (single isomer, unassigned) [R isomer]
GABAA receptors
  Hill Coefficient: 1.9

## CCOC(=O)c1cncn1[C@@H](C)c1ccccc1 (single isomer, unassigned) [S isomer]
GABAA receptors
  Hill Coefficient: 2.9

## FC(F)OC(F)C(F)(F)F (stereo not drawn) [Desflurane]
[1]
  EC50: 560 µM
GLIC
  concentration at which inhibition of GLIC was produced: 0.01 % of MAC
  Hill Coefficient: 0.25 ± 0.05
GLIC; 0.5 mM desflurane
  effect on currents through GLIC (current tracing): inhibit currents through GLIC
GLIC; listed as desflurane
  Hill Coefficient: 0.25
GLIC; [10]
  IC50: 0.01 µM
GLIC; [11]
  IC50: 300 µM

## CCO [Ethanol]
[2]
  sensitivity to ethanol: not sensitive to ethanol
[3]
  effect on currents: potentiates currents
[4]
  sensitivity to ethanol: not sensitive to ethanol
Homomeric α7 receptors
  effect on receptors: inhibits
[5]
  lowest potentiating concentration: 3 mM
5HT3 receptors; ethanol 50 to 200 mM
  maximal increase in currents: ≤ 50%
[6]; 75mM ethanol
  effect on currents: potentiates currents
[7]
  effect on currents: potentiates currents
[8]; 75mM ethanol
  effect on currents: potentiates currents
GLIC; 200 mM ethanol compared to controls (p > 0.05)
  effect on GLIC currents: no effect
GLIC; 200 mM ethanol compared to controls (p > 0.05), listed as ethanol
  effect on GLIC currents: did not modulate channel currents
GLIC
  modulation of GLIC: did not modulate GLIC

## CCOC(=O)c1cncn1[C@H](C)c1ccccc1 [Etomidate]
Glycine receptors; 300μM etomidate
  potentiation of currents through glycine receptors: 29%
GLIC
  effect on GLIC currents relative to anesthetic concentrations: inhibitory only at concentrations above those used to achieve anesthesia
  Hill Coefficient: not different from 1
GLIC; 50 μM etomidate
  effect on currents through GLIC (current tracing): inhibit currents through GLIC

## FC(F)(F)C(Cl)Br (stereo not drawn) [Halothane]
5HT3A receptors
  potentiation of 5HT3A receptors: approximately 200%
[1]
  EC50: 230 µM
GLIC
  concentration at which inhibition of GLIC was produced: 1 % of MAC
  Hill Coefficient: 0.27 ± 0.04
GLIC; 0.25 mM halothane
  effect on currents through GLIC (current tracing): inhibit currents through GLIC
GLIC; listed as halothane
  Hill Coefficient: 0.27
GLIC; [10]
  IC50: 0.3 µM
GLIC; [11]
  IC50: 1100 µM

## FC(F)OC(Cl)C(F)(F)F (stereo not drawn) [Isoflurane]
[2]; α3 β4 isoform
  IC50: 56 µM
[1]
  EC50: 280 µM
α4 β2 nACh receptors
  Hill number: 1.3
  IC50: 85 µM
5HT3 receptors; anesthetic concentration raised to 10 MAC
  potentiation of 5HT3 receptor function: > 100%
5HT3 receptors; at MAC
  enhancement of 5HT3 receptor function: less than 50%
[6]; α2 β4 isoform
  IC50: 25 µM
[8]; α4β2 isoform
  IC50: 82 µM
GLIC
  concentration at which inhibition of GLIC was produced: 1 % of MAC
  Hill Coefficient: 0.32 ± 0.07
GLIC; 0.3 mM isoflurane
  effect on currents through GLIC (current tracing): inhibit currents through GLIC
GLIC; listed as isoflurane
  Hill Coefficient: 0.32

## [N-]=[N+]=O [Nitrous Oxide]
[9]; MAC in humans
  Anesthetic EC50: 1.04 atm ([7])
GABA receptors
  potentiation of GABA receptor function: ~20%
Glycine receptors; nitrous oxide at 0.6 atm
  potentiation of glycine receptor function: approximately 30%
α4β2 nACh receptors
  inhibition: 39%
α4β4 nACh receptors
  inhibition: 7%
5HT3 receptors; nitrous oxide at 0.6 atm
  inhibition: approximately 15%
GLIC
  modulation of GLIC: did not modulate GLIC

## CC(C)c1cccc(C(C)C)c1O [Propofol]
[1]
  EC50: 1.9 µM
Glycine α1 receptors
  EC50: 16 µM
α4 β2 nACh receptors
  Hill number: 2.9
  IC50: 19 µM
Glycine α1 β receptors
  EC50: 27 µM
GLIC
  lowest concentration inhibiting currents: 2 % of its anesthetic EC50
  Hill Coefficient: 0.42 ± 0.08
GLIC; 1 μM propofol
  effect on currents through GLIC (current tracing): inhibit currents through GLIC
GLIC; listed as propofol
  Hill Coefficient: 0.42

## FCOC(C(F)(F)F)C(F)(F)F [Sevoflurane]
[1]
  EC50: 330 µM
5HT3 receptors; at MAC
  effect on currents through 5HT3 receptors: inhibiting rather than enhancing currents
GLIC
  concentration at which inhibition of GLIC was produced: 1 % of MAC
  Hill Coefficient: 0.27 ± 0.1
GLIC; 0.3 mM sevoflurane
  effect on currents through GLIC (current tracing): inhibit currents through GLIC
GLIC; listed as sevoflurane
  Hill Coefficient: 0.27

## [Xe] [Xenon]
[9]; MAC of xenon in humans
  Anesthetic EC50: 0.71 atm ([5])
GLIC; 0.8 atm xenon
  effect on GLIC currents: significantly inhibited currents
GLIC; 80 % atm xenon
  effect on currents through GLIC (current tracing): inhibit currents through GLIC
GLIC
  Hill Coefficient: 1.9 ± 0.47
GLIC; listed as xenon
  Hill Coefficient: not different from 1; also recorded: not significantly different than 1

Source: PMC2897236 (Anesthesia and analgesia, 2009)
